The test system of the series is CCRIS mutagenicity, Ames/micronucleus/aberration tests. The series can be described thus: CCRIS mutagenicity studies.
Where [1] appears, read: Test System: AMES SALMONELLA TYPHIMURIUM, Strain/Indicator: TA98, Metabolic Activation: NONE, Method: STANDARD PLATE.
Setting [2] is: Test System: AMES SALMONELLA TYPHIMURIUM, Strain/Indicator: TA98, Metabolic Activation: RAT, LIVER, S-9, AROCLOR 1254, Method: STANDARD PLATE.
The mark [3] stands for this setting: Test System: AMES SALMONELLA TYPHIMURIUM, Strain/Indicator: TA100, Metabolic Activation: NONE, Method: STANDARD PLATE.
[4] abbreviates: Test System: AMES SALMONELLA TYPHIMURIUM, Strain/Indicator: TA100, Metabolic Activation: RAT, LIVER, S-9, AROCLOR 1254, Method: STANDARD PLATE.
Where [5] appears, read: Test System: AMES SALMONELLA TYPHIMURIUM, Strain/Indicator: TA1535, Metabolic Activation: NONE, Method: STANDARD PLATE.
The mark [6] stands for this setting: Test System: AMES SALMONELLA TYPHIMURIUM, Strain/Indicator: TA1535, Metabolic Activation: RAT, LIVER, S-9, AROCLOR 1254, Method: STANDARD PLATE.
The mark [7] stands for this setting: Test System: AMES SALMONELLA TYPHIMURIUM, Strain/Indicator: TA1537, Metabolic Activation: NONE, Method: STANDARD PLATE.
Setting [8] is: Test System: AMES SALMONELLA TYPHIMURIUM, Strain/Indicator: TA1537, Metabolic Activation: RAT, LIVER, S-9, AROCLOR 1254, Method: STANDARD PLATE.
The mark [9] stands for this setting: Test System: AMES SALMONELLA TYPHIMURIUM, Strain/Indicator: TA1538, Metabolic Activation: NONE, Method: STANDARD PLATE.
Setting [10] is: Test System: AMES SALMONELLA TYPHIMURIUM, Strain/Indicator: TA1538, Metabolic Activation: RAT, LIVER, S-9, AROCLOR 1254, Method: STANDARD PLATE.
Where [11] appears, read: Test System: MOUSE LYMPHOMA, Strain/Indicator: L5178Y (TK+/TK-), Metabolic Activation: NONE, Method: SUSPENSION/PLATE.

Structures are written as SMILES. The source made the active and inactive calls. The rule behind the calls is not given here.

For `Cc1c(C)c2c(c(C)c1O)CC[C@@](C)(CCC[C@H](C)CCC[C@H](C)CCCC(C)C)O2`, the mutagenic call under setting [1] is “inactive; negative”; the mutagenic call under setting [2] is “inactive; negative”; the mutagenic call under setting [3] was “inactive; negative”; the mutagenic call under setting [4] was “inactive; negative”; the mutagenic call under setting [5] was “inactive; negative”; the mutagenic call under setting [6] is “inactive; negative”. Also, the mutagenic call was “inactive; negative” under setting [7]; “inactive; negative” under setting [8]; “inactive; negative” under setting [9]; “inactive; negative” under setting [10]; “inactive; negative” (Test System: E. COLI, Strain/Indicator: WP2, Metabolic Activation: NONE, Method: STANDARD PLATE); “inactive; negative” (Test System: E. COLI, Strain/Indicator: WP2, Metabolic Activation: RAT, LIVER, S-9, AROCLOR 1254, Method: STANDARD PLATE).
With `O=C1CCC(=O)N1Br`, the mutagenic call (Test System: AMES SALMONELLA TYPHIMURIUM, Strain/Indicator: TA98, Metabolic Activation: HAMSTER, LIVER, S-9, AROCLOR 1254 (10%), Method: STANDARD PLATE) was “inactive; negative”; the mutagenic call under setting [1] is “inactive; negative”; the mutagenic call (Test System: AMES SALMONELLA TYPHIMURIUM, Strain/Indicator: TA98, Metabolic Activation: RAT, LIVER, S-9, AROCLOR 1254 (10%), Method: STANDARD PLATE) was “inactive; negative”; the mutagenic call (Test System: AMES SALMONELLA TYPHIMURIUM, Strain/Indicator: TA100, Metabolic Activation: HAMSTER, LIVER, S-9, AROCLOR 1254 (10%), Method: STANDARD PLATE) is “active; positive”; the mutagenic call under setting [3] is “inactive; negative”; the mutagenic call (Test System: AMES SALMONELLA TYPHIMURIUM, Strain/Indicator: TA100, Metabolic Activation: RAT, LIVER, S-9, AROCLOR 1254 (10%), Method: STANDARD PLATE) was “active; positive”. Moreover, the mutagenic call under setting [11] is “active; positive. reevaluation of results: equivocal” and the mutagenic call (Test System: MOUSE LYMPHOMA, Strain/Indicator: L5178Y (TK+/TK-), Metabolic Activation: RAT, LIVER, S-9, AROCLOR 1254, Method: SUSPENSION/PLATE) was “inactive; negative. reevaluation of results: negative”.
On to `CCO[Si](OCC)(OCC)OCC`, for which the mutagenic call is, setting by setting: (Test System: AMES SALMONELLA TYPHIMURIUM, Strain/Indicator: TA98, Metabolic Activation: HAMSTER, LIVER, S-9, AROCLOR 1254, Method: STANDARD PLATE) “inactive; negative”; under setting [1], “inactive; negative”; under setting [2], “inactive; negative”; (Test System: AMES SALMONELLA TYPHIMURIUM, Strain/Indicator: TA100, Metabolic Activation: HAMSTER, LIVER, S-9, AROCLOR 1254, Method: STANDARD PLATE) “inactive; negative”; under setting [3], “inactive; negative”; under setting [4], “inactive; negative”. Further, the mutagenic call runs as follows: (Test System: AMES SALMONELLA TYPHIMURIUM, Strain/Indicator: TA102, Metabolic Activation: HAMSTER, LIVER, S-9, AROCLOR 1254, Method: STANDARD PLATE) “inactive; negative”; (Test System: AMES SALMONELLA TYPHIMURIUM, Strain/Indicator: TA102, Metabolic Activation: NONE, Method: STANDARD PLATE) “inactive; negative”; (Test System: AMES SALMONELLA TYPHIMURIUM, Strain/Indicator: TA102, Metabolic Activation: RAT, LIVER, S-9, AROCLOR 1254, Method: STANDARD PLATE) “inactive; negative”; (Test System: AMES SALMONELLA TYPHIMURIUM, Strain/Indicator: TA1535, Metabolic Activation: HAMSTER, LIVER, S-9, AROCLOR 1254, Method: STANDARD PLATE) “inactive; negative”; under setting [5], “inactive; negative”; under setting [6], “inactive; negative”. In addition, the mutagenic call is “inactive; negative” (Test System: AMES SALMONELLA TYPHIMURIUM, Strain/Indicator: TA1537, Metabolic Activation: HAMSTER, LIVER, S-9, AROCLOR 1254, Method: STANDARD PLATE); “inactive; negative” under setting [7]; “inactive; negative” under setting [8]; “inactive; negative. reevaluation of results: negative” under setting [11]; “inactive; negative” (Test System: Mouse lymphoma, Strain/Indicator: L5178 Y (tk+/tk-), Metabolic Activation: Rat, Liver, S-9, Aroclor 1254, Method: Suspension/plate).
Turning to `CC1(C)SC2[C@H](NC(=O)C(N)c3ccccc3)C(=O)N2[C@H]1C(=O)O.[Cl][Pt].[H+]` (some centres not stated), for the setting “Test System: MOUSE LYMPHOMA, Strain/Indicator: L5178Y(LY-R) (HGPRT)/6-THIOGUANINE, Metabolic Activation: NONE”, the mutagenic call was “inactive; negative”.
On to `CCCCCN(N=O)C(N)=O`, for which the mutagenic call was “active; positive” (Test System: E. COLI B, Strain/Indicator: H/R30R, Metabolic Activation: NONE) and “active; positive” (Test System: E. COLI B, Strain/Indicator: HS30R, Metabolic Activation: NONE).
For the compound `CC(C)Oc1ccc2c(=O)c(-c3ccccc3)coc2c1`, the mutagenic call is, setting by setting: under setting [1], “inactive; negative”; (Test System: AMES SALMONELLA TYPHIMURIUM, Strain/Indicator: TA98, Metabolic Activation: S-9, Method: STANDARD PLATE) “inactive; negative”; under setting [3], “inactive; negative”; (Test System: AMES SALMONELLA TYPHIMURIUM, Strain/Indicator: TA100, Metabolic Activation: S-9, Method: STANDARD PLATE) “inactive; negative”; under setting [5], “inactive; negative”; (Test System: AMES SALMONELLA TYPHIMURIUM, Strain/Indicator: TA1535, Metabolic Activation: S-9, Method: STANDARD PLATE) “inactive; negative”. Moreover, the mutagenic call reads like this: under setting [7], “inactive; negative”; (Test System: AMES SALMONELLA TYPHIMURIUM, Strain/Indicator: TA1537, Metabolic Activation: S-9, Method: STANDARD PLATE) “inactive; negative”; under setting [9], “inactive; negative”; (Test System: AMES SALMONELLA TYPHIMURIUM, Strain/Indicator: TA1538, Metabolic Activation: S-9, Method: STANDARD PLATE) “inactive; negative”; (Test System: E. COLI, Strain/Indicator: WP2 UVRA, Metabolic Activation: NONE, Method: STANDARD PLATE) “inactive; negative”; (Test System: E. COLI, Strain/Indicator: WP2 UVRA, Metabolic Activation: S-9, Method: STANDARD PLATE) “inactive; negative”.
As for `C=C(C)C(=O)OC(C)(C)C`, the mutagenic call by setting is: under setting [1], “inactive; negative”; under setting [2], “inactive; negative”; (Test System: AMES SALMONELLA TYPHIMURIUM, Strain/Indicator: TA98, Metabolic Activation: RAT, LIVER, S-9, SODIUM PHENOBARBITAL, Method: STANDARD PLATE) “inactive; negative”; under setting [3], “inactive; negative”; under setting [4], “inactive; negative”; (Test System: AMES SALMONELLA TYPHIMURIUM, Strain/Indicator: TA100, Metabolic Activation: RAT, LIVER, S-9, SODIUM PHENOBARBITAL, Method: STANDARD PLATE) “inactive; negative”. The mutagenic call under setting [5] is “inactive; negative”; the mutagenic call under setting [6] was “inactive; negative”; the mutagenic call (Test System: AMES SALMONELLA TYPHIMURIUM, Strain/Indicator: TA1535, Metabolic Activation: RAT, LIVER, S-9, SODIUM PHENOBARBITAL, Method: STANDARD PLATE) is “inactive; negative”; the mutagenic call under setting [7] was “inactive; negative”; the mutagenic call under setting [8] was “inactive; negative”; the mutagenic call (Test System: AMES SALMONELLA TYPHIMURIUM, Strain/Indicator: TA1537, Metabolic Activation: RAT, LIVER, S-9, SODIUM PHENOBARBITAL, Method: STANDARD PLATE) is “inactive; negative”. Besides, the mutagenic call under setting [9] was “inactive; negative”; the mutagenic call under setting [10] was “inactive; negative”; the mutagenic call (Test System: AMES SALMONELLA TYPHIMURIUM, Strain/Indicator: TA1538, Metabolic Activation: RAT, LIVER, S-9, SODIUM PHENOBARBITAL, Method: STANDARD PLATE) is “inactive; negative”.

These data come from PubChem BioAssay AID1259407 (Chemical Carcinogenesis Research Information System (CCRIS), 2018).
